Earlier results as cited in patent US20220218740A1, “OPIOID-FREE COMPOSITIONS FOR ANESTHESIOLOGICAL APPLICATIONS AND RELATED METHODS AND SYSTEMS” (Vaporworks Nursing Anesthesia Inc., priority 2020, published 2022).
Like-named read-outs stand apart in the source and are kept apart here. Blank lines part the entries; values can stand above or below the compound they belong to.

How the values were obtained:
[1] = infusion continued post-surgically
[2] = not given; remark: listed apart in the source

SMILES: CCN(CC)CC(=O)Nc1c(C)cccc1C [Lidocaine]
Peak serum levels occur after medication administration [1]: serum levels occur 24 hours

SMILES: COC(=O)CCc1ccc(OCC(O)CNC(C)C)cc1 (stereo not shown) [esmolol]
Duration ([2]; in vivo): > 20 min
Peak ([2]; in vivo): 2 to 6 min
Onset ([2]; in words): Immediate

Second part, the compound after the results:

onset time (in vivo): two
time until peak effect (in vivo): at least 1 hour
SMILES: C[C@@H]1C[C@H]2[C@@H]3CCC4=CC(=O)C=C[C@]4(C)[C@@]3(F)[C@@H](O)C[C@]2(C)[C@@]1(O)C(=O)COP(=O)(O)O [Dexamethasone, Dexamethasone Sodium phosphate]

peek effect (IV): 15 min
SMILES: Cc1cccc([C@H](C)c2cnc[nH]2)c1C [Dexmedetomidine]

Duration ([2]; in vivo): up to 4 hours
Onset ([2]; in vivo): 2 to 5 min
Peak ([2]; in vivo): 5 to 15 min
SMILES: CC(CCc1ccccc1)NCC(O)c1ccc(O)c(C(N)=O)c1 (stereo not shown) [labetalol]
